The results in this text go back to patent US10543212B2, “Substituted amines for treating cardiac diseases” (Cardurion Pharmaceuticals, LLC, priority 2017, dated 2020).

Usually IC50 stands for the point on the concentration scale where inhibition reaches its midpoint. Low readings indicate inhibition by little substance, high ones a need for much substance.

Where only a bound is given, the exact number is not on record here.

The assay has as its target T1, Full-length, GST-tagged, human CaMKIIδ (Homo sapiens, UniProt Q13557).
T1 construct: Full-Length, Glutathione-S-Transferase(GST)-Tagged, Human CaMKIIδ was purchased from Carna Biosciences; purchased Carna Biosciences 02-111
Nature of the assay: CaMKIIδ binding assay (TR-FRET with BODIPY-labeled probe ligand). In short, it runs like this: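 TR-FRET probe-displacement binding: 0.5 nM GST-CaMKIIδ with 10 μg/mL calmodulin, 1 mM CaCl2, 0.21 nM Tb-anti-GST Ab and 300 nM BODIPY probe in HEPES pH 7.6 buffer. Eight-point 4-fold dilutions, 1 hr at room temperature. IC50 from logistic fit; 100% inhibition defined by 3 μM parent compound.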
On the technique in general: Time-resolved FRET reads energy transfer from a long-lived donor to a nearby acceptor.

[1] abbreviates: Table 2, activity class for CaMKIIδ.
The mark [2] stands for this setting: Table 2, CaMKIIδ binding assay, activity given as class A/B/C.
[3] abbreviates: CaMKIIδ binding assay, results of Table 2.

T1 sequence (Q13557 1-478 isoform Q13557-12): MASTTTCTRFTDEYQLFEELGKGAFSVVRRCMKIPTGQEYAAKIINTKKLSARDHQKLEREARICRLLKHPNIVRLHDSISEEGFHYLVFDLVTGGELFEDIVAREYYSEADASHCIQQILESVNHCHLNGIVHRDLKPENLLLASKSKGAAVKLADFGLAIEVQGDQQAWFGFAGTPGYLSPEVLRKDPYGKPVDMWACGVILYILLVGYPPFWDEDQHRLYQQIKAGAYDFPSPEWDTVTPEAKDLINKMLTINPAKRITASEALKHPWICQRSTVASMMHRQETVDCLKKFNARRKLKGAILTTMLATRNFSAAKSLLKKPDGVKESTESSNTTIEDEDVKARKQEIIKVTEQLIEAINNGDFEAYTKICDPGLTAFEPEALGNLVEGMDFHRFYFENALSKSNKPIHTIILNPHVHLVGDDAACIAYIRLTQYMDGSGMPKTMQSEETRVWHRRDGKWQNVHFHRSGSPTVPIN

Molecule `C[C@@H](Cn1cnnn1)Oc1cc(-c2cnc(Nc3cn(CC4CCCCO4)nc3C(F)(F)F)nc2)ccc1Cl` (stereo partly drawn) [Example 712, 5-(3-(((S)-1-(1H-tetrazol-1-yl)propan-2-yl)oxy)-4-chlorophenyl)-N-(1-((tetrahydro-2H-pyran-2-yl)methyl)-3-(trifluoromethyl)-1H-pyrazol-4-yl)pyrimidin-2-amine] had an IC50 under setting [1] of 10 to 100 nM. Consider `C[C@@H](Cn1cnnn1)Oc1cc(-c2cnc(Nc3cn(C4CCNCC4)nc3OCC(F)(F)F)nc2)ccc1Cl` [Example 676, (S)-5-(3-((1-(1H-tetrazol-1-yl)propan-2-yl)oxy)-4-chlorophenyl)-N-(1-(piperidin-4-yl)-3-(2,2,2-trifluoroethoxy)-1H-pyrazol-4-yl)pyrimidin-2-amine], for which the IC50 under setting [1] was less than 10 nM. As for `C[C@@H](Cn1cnnn1)Oc1cc(-c2cnc(Nc3cn([C@@H]4C[C@H]5CC[C@@H](C4)N5C4CC4)nc3C(F)(F)F)nc2)ccc1Cl` [Example 757, 5-(3-(((S)-1-(1H-tetrazol-1-yl)propan-2-yl)oxy)-4-chlorophenyl)-N-(1-((1R,3s,5S)-8-cyclopropyl-8-azabicyclo[3.2.1]octan-3-yl)-3-(trifluoromethyl)-1H-pyrazol-4-yl)pyrimidin-2-amine], the IC50 under setting [2] is less than 10 nM. Consider `COc1ccc(C(=O)N2CCCN(CCO)CC2)cc1Nc1ncc(-c2ccc(Cl)c(O[C@@H](C)Cn3cnnn3)c2)cn1` [Example 588, (S)-(3-((5-(3-((1-(1H-tetrazol-1-yl)propan-2-yl)oxy)-4-chlorophenyl)pyrimidin-2-yl)amino)-4-methoxyphenyl) (4-(2-hydroxyethyl)-1,4-diazepan-1-yl)methanone], for which the IC50 under setting [1] was less than 10 nM. Under setting [2], `C[C@@H](Cn1cc(F)cn1)Oc1cc(-c2cnc(Nc3cn(C4CCN(C5CCOCC5)CC4)nc3OCC(F)(F)F)nc2)ccc1C#N` [Example 819, (S)-2-((1-(4-fluoro-1H-pyrazol-1-yl)propan-2-yl)oxy)-4-(2-((1-(1-(tetrahydro-2H-pyran-4-yl)piperidin-4-yl)-3-(2,2,2-trifluoroethoxy)-1H-pyrazol-4-yl)amino)pyrimidin-5-yl)benzonitrile] showed a half-inhibitory concentration (IC50) of 10 to 100 nM. With `COC1CCC(N2CCC(n3cc(Nc4ncc(-c5ccc(Cl)c(OC(C)Cn6cnnn6)c5)cn4)c(C(F)(F)F)n3)CC2)CC1` (single isomer, unassigned; more polar) [Example 556, (S)-5-(3-((1-(1H-tetrazol-1-yl)propan-2-yl)oxy)-4-chlorophenyl)-N-(1-(1-(cis or trans-4-methoxycyclohexyl)piperidin-4-yl)-3-(trifluoromethyl)-1H-pyrazol-4-yl)pyrimidin-2-amine, more polar], the IC50 under setting [3] is less than 10 nM.

Consider `COc1cc(N2CCN(CC3COC3)CC2)cnc1Nc1ncc(-c2ccc(Cl)c(O[C@@H](C)Cn3cnnn3)c2)cn1` [Example 648, (S)-5-(3-((1-(1H-tetrazol-1-yl)propan-2-yl)oxy)-4-chlorophenyl)-N-(3-methoxy-5-(4-(oxetan-3-ylmethyl)piperazin-1-yl)pyridin-2-yl)pyrimidin-2-amine], for which the IC50 under setting [1] fell in the range of 10 to 100 nM.

In the case of `C[C@@H](Cn1cnnn1)Oc1cc(-c2cnc(Nc3cn(CC(O)(C(F)(F)F)C(F)(F)F)nc3C(F)(F)F)nc2)ccc1Cl` [Example 744, (S)-2-((4-((5-(3-((1-(1H-tetrazol-1-yl)propan-2-yl)oxy)-4-chlorophenyl)pyrimidin-2-yl)amino)-3-(trifluoromethyl)-1H-pyrazol-1-yl)methyl)-1,1,1,3,3,3-hexafluoropropan-2-ol], the IC50 under setting [2] is no less than 100 nM.

On to `COc1ccc(C(=O)N2C[C@@H](C)N[C@@H](C)C2)cc1Nc1ncc(-c2ccc(Cl)c(O[C@@H](C)Cn3cnnn3)c2)cn1` [Example 570, (3-((5-(3-(((S)-1-(1H-tetrazol-1-yl)propan-2-yl)oxy)-4-chlorophenyl)pyrimidin-2-yl)amino)-4-methoxyphenyl) (cis-3,5-dimethylpiperazin-1-yl)methanone], for which the IC50 under setting [3] was less than 10 nM. Under setting [2], `C[C@@H](Cn1cnnn1)Oc1cc(-c2cnc(Nc3cn([C@H]4CC[C@H](N5CC6(COC6)C5)CC4)nc3C(F)(F)F)nc2)ccc1Cl` [Example 822, 5-(3-(((S)-1-(1H-tetrazol-1-yl)propan-2-yl)oxy)-4-chlorophenyl)-N-(1-(trans-4-(2-oxa-6-azaspiro[3.3]heptan-6-yl)cyclohexyl)-3-(trifluoromethyl)-1H-pyrazol-4-yl)pyrimidin-2-amine] displayed an IC50 of less than 10 nM. As for `CC(C)c1nn([C@H]2CC[C@@H](N3CCOCC3)CC2)cc1Nc1ncc(-c2ccc(Cl)c(O[C@@H](C)Cn3cnnn3)c2)cn1` [Example 842, 5-(3-(((S)-1-(1H-tetrazol-1-yl)propan-2-yl)oxy)-4-chlorophenyl)-N-(3-isopropyl-1-(cis-4-morpholinocyclohexyl)-1H-pyrazol-4-yl)pyrimidin-2-amine], the IC50 under setting [2] was less than 10 nM. On to `C[C@@H](Cn1cnnn1)Oc1cc(-c2cnc(Nc3cn([C@@H]4Cc5ccccc5[C@@H]4O)nc3C(F)(F)F)nc2)ccc1Cl` [Example 721, (1S,2R)-2-(4-((5-(3-(((S)-1-(1H-tetrazol-1-yl)propan-2-yl)oxy)-4-chlorophenyl)pyrimidin-2-yl)amino)-3-(trifluoromethyl)-1H-pyrazol-1-yl)-2,3-dihydro-1H-inden-1-ol], for which the half-inhibitory concentration (IC50) under setting [1] was 10 to 100 nM. With `C[C@@H](Cn1cnnn1)Oc1cc(-c2cnc(Nc3cc4c(cc3Cl)CCN(C3COC3)CC4)nc2)ccc1Cl` [Example 513, (S)-N-(5-(3-((1-(1H-tetrazol-1-yl)propan-2-yl)oxy)-4-chlorophenyl)pyrimidin-2-yl)-8-chloro-3-(oxetan-3-yl)-2,3,4,5-tetrahydro-1H-benzo[d]azepin-7-amine], the IC50 under setting [3] was less than 10 nM. With `C[C@@H](Cn1cnnn1)Oc1cc(-c2cnc(Nc3cn(CC4CCCN4C4CCOCC4)nc3C(F)(F)F)nc2)ccc1Cl` (stereo partly drawn) [Example 611, 5-(3-(((S)-1-(1H-tetrazol-1-yl)propan-2-yl)oxy)-4-chlorophenyl)-N-(1-((1-(tetrahydro-2H-pyran-4-yl)pyrrolidin-2-yl)methyl)-3-(trifluoromethyl)-1H-pyrazol-4-yl)pyrimidin-2-amine], the IC50 under setting [1] is less than 10 nM. The molecule `CC(=O)NCCn1cc(Nc2ncc(-c3ccc(Cl)c(O[C@@H](C)Cn4cnnn4)c3)cn2)c(C(F)(F)F)n1` [Example 846, (S)-N-(2-(4-((5-(3-((1-(1H-tetrazol-1-yl)propan-2-yl)oxy)-4-chlorophenyl)pyrimidin-2-yl)amino)-3-(trifluoromethyl)-1H-pyrazol-1-yl)ethyl)acetamide] showed an IC50 under setting [2] of 10 to 100 nM. Under setting [3], `COc1cc2c(cc1Nc1ncc(-c3ccc(Cl)c(O[C@@H](C)Cn4cnnn4)c3)cn1)CNCC2` [Example 461, (S)-N-(5-(3-((1-(1H-tetrazol-1-yl)propan-2-yl)oxy)-4-chlorophenyl)pyrimidin-2-yl)-6-methoxy-1,2,3,4-tetrahydroisoquinolin-7-amine] yielded an IC50 of less than 10 nM. Under setting [2], `C[C@@H](Cn1cnnn1)Oc1cc(-c2cnc(Nc3cn([C@H]4CC[C@@H](N5CCOCC5)CC4)nc3OC3COC3)nc2)ccc1Cl` [Example 820, 5-(3-(((S)-1-(1H-tetrazol-1-yl)propan-2-yl)oxy)-4-chlorophenyl)-N-(1-(cis-4-morpholinocyclohexyl)-3-(oxetan-3-yloxy)-1H-pyrazol-4-yl)pyrimidin-2-amine] had an IC50 of less than 10 nM. `C[C@@H](Cn1cnnn1)Oc1cc(-c2cnc(Nc3cn(CCN4CCCC4)nc3C(F)(F)F)nc2)ccc1Cl` [Example 631, (S)-5-(3-((1-(1H-tetrazol-1-yl)propan-2-yl)oxy)-4-chlorophenyl)-N-(1-(2-(pyrrolidin-1-yl)ethyl)-3-(trifluoromethyl)-1H-pyrazol-4-yl)pyrimidin-2-amine] gave an IC50 under setting [1] of less than 10 nM. Molecule `COc1cc2c(cc1Nc1ncc(-c3ccc(Cl)c(O[C@@H](C)Cn4cnnn4)c3)cn1)CN(C(=O)CO)CC2` [Example 522, (S)-1-(7-((5-(3-((1-(1H-tetrazol-1-yl)propan-2-yl)oxy)-4-chlorophenyl)pyrimidin-2-yl)amino)-6-methoxy-3,4-dihydroisoquinolin-2(1H)-yl)-2-hydroxyethan-1-one] came in with an IC50 under setting [3] of 10 to 100 nM. As to `CCn1cc(Nc2ncc(-c3ccc(C#N)c(O[C@@H](C)Cn4cnnn4)c3)cn2)c(OCC(F)(F)F)n1` [Example 764, (S)-2-((1-(1H-tetrazol-1-yl)propan-2-yl)oxy)-4-(2-((1-ethyl-3-(2,2,2-trifluoroethoxy)-1H-pyrazol-4-yl)amino)pyrimidin-5-yl)benzonitrile], the IC50 under setting [2] is less than 10 nM. For the molecule `C[C@@H](Cn1cccn1)Oc1cc(-c2cnc(Nc3cn([C@H]4CC[C@H](N5CCOCC5)CC4)nc3OCC(F)(F)F)nc2)ccc1C#N` [Example 798, 2-(((S)-1-(1H-pyrazol-1-yl)propan-2-yl)oxy)-4-(2-((1-(trans-4-morpholinocyclohexyl)-3-(2,2,2-trifluoroethoxy)-1H-pyrazol-4-yl)amino)pyrimidin-5-yl)benzonitrile], the IC50 under setting [2] was less than 10 nM. With `C[C@@H](Cn1cnnn1)Oc1cc(-c2cnc(Nc3cn(CCNC(=O)c4ccccc4)nc3C(F)(F)F)nc2)ccc1Cl` [Example 630, (S)-N-(2-(4-((5-(3-((1-(1H-tetrazol-1-yl)propan-2-yl)oxy)-4-chlorophenyl)pyrimidin-2-yl)amino)-3-(trifluoromethyl)-1H-pyrazol-1-yl)ethyl)benzamide], the IC50 under setting [1] was no less than 100 nM.

`COc1nc(N2CCN(C3CCOCC3)CC2)ccc1Nc1ncc(-c2ccc(Cl)c(O[C@@H](C)Cn3cnnn3)c2)cn1` [Example 616, (S)-5-(3-((1-(1H-tetrazol-1-yl)propan-2-yl)oxy)-4-chlorophenyl)-N-(2-methoxy-6-(4-(tetrahydro-2H-pyran-4-yl)piperazin-1-yl)pyridin-3-yl)pyrimidin-2-amine] had an IC50 under setting [1] of less than 10 nM.
